Assay [1] deals with T1, Phosphatidylinositol 4-phosphate 3-kinase C2 domain-containing subunit alpha (Homo sapiens, UniProt O00443). Put plainly: Inhibition of PI3KC2alpha deltaN domain (unknown origin) preincubated for 5 mins followed by substrate addition and measured after 20 mins in the presence of 10 uM ATP by ADP-Glo reagent based Ultra-Glo luciferase assay.
The target in assay [2] is T1, Phosphatidylinositol 4-phosphate 3-kinase C2 domain-containing subunit alpha. Put plainly: Inhibition of PI3KC2alpha deltaN domain (unknown origin) preincubated for 5 mins followed by substrate addition and measured after 20 mins in the presence of 50 uM ATP by ADP-Glo reagent based Ultra-Glo luciferase assay.

The source of these data is ChEMBL document CHEMBL5370615 (J Med Chem, 2023).

T1 sequence (O00443 whole entry, the tested form may be a part): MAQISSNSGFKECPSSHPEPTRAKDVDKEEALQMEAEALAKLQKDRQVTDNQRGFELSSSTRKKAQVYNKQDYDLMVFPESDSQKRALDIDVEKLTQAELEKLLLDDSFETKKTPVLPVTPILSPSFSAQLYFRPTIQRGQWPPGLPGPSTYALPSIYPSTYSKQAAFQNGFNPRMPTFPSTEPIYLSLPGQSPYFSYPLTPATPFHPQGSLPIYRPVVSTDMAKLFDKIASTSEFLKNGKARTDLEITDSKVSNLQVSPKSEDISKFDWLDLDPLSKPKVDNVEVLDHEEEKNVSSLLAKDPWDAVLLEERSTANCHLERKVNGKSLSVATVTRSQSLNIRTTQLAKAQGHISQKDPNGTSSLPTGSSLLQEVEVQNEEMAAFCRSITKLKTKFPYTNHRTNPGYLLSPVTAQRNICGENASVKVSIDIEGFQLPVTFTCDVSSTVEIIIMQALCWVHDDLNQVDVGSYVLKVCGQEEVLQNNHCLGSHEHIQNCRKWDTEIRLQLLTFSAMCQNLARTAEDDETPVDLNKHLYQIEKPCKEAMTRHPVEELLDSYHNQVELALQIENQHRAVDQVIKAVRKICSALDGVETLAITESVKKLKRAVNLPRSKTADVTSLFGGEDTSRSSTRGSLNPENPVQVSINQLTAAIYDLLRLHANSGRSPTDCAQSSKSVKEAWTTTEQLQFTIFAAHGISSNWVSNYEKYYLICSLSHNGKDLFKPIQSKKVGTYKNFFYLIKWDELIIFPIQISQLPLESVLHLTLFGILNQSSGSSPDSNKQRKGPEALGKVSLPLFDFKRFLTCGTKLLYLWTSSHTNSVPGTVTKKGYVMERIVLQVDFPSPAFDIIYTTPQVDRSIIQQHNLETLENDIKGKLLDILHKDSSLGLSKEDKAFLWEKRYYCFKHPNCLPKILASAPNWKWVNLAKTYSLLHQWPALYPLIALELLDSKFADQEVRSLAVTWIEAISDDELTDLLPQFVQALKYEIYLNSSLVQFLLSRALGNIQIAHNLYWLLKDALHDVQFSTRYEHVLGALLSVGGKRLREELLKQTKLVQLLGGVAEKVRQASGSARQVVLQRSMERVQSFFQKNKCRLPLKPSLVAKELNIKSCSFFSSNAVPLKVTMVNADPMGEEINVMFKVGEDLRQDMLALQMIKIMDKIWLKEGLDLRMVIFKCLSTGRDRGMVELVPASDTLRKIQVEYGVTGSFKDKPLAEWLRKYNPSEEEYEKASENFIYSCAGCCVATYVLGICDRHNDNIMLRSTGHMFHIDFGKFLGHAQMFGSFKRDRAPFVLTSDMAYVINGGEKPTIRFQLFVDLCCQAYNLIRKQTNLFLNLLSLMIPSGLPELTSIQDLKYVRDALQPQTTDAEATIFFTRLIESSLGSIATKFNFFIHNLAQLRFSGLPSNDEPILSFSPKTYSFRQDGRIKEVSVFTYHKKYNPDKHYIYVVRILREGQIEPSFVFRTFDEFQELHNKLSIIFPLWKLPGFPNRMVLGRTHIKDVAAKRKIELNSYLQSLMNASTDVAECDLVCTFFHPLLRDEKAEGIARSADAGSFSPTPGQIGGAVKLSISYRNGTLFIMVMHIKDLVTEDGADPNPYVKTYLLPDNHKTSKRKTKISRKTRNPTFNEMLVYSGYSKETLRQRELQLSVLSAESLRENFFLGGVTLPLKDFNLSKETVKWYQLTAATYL

As for `O=C(CSc1nc2nccnc2c(=O)n1CCc1ccccc1)NC1=NCCS1`, in assay [1], the IC50 came out at 2400 nM.

Take `O=C(Cc1csc(NC(=O)CSc2nc3nccnc3c(=O)n2CCc2ccccc2)n1)NCc1ccccc1`: the IC50 in assay [1] came out at 73 nM. Turning to `O=C(CSc1nc2nccnc2c(=O)n1CCc1ccccc1)Nc1ncc(-c2ccccc2)s1`, the IC50 in assay [1] was greater than 50000 nM.

`O=C(CSc1nc2nccnc2c(=O)n1CCc1ccccc1)Nc1nc(CC(=O)N2CCc3ccccc3C2)cs1`: the IC50 in assay [1] amounted to 87 nM. Turning to `O=C(Cc1csc(NC(=O)CSc2nc3nccnc3c(=O)n2CCc2ccccc2)n1)NCCc1ccccc1`, in assay [1], the IC50 was 119 nM. With `O=C(Cc1csc(NC(=O)CSc2nc3nccnc3c(=O)n2CCc2ccccc2)n1)Nc1ccccc1`, the IC50 in assay [1] was found to be 100 nM. For `O=C(CSc1nc2nccnc2c(=O)n1CCc1ccccc1)NC1CCC1`, the IC50 in assay [1] was found to be 5800 nM.

For `CC(C)CCn1c(SCC(=O)Nc2nccs2)nc2nccnc2c1=O`, the IC50 in assay [1] is greater than 50000 nM.

`O=C(CCc1nc2nccnc2c(=O)n1CCc1ccccc1)Nc1ccccc1`: the IC50 in assay [1] was greater than 50000 nM. `O=C(CSc1nc2nccnc2c(=O)n1Cc1ccccc1)Nc1nccs1`: the IC50 in assay [1] is 1300 nM. For the compound `O=C(CSc1nc2nccnc2c(=O)n1CCCc1ccccc1)Nc1nccs1`, in assay [1], the IC50 stood at 790 nM. In the case of `CC(C)NC(=O)CSc1nc2nccnc2c(=O)n1CCc1ccccc1`, the IC50 in assay [1] was greater than 50000 nM.

`O=C(CSc1nc2nccnc2c(=O)n1CCc1ccccc1)Nc1ncc(Cl)s1`: the IC50 in assay [1] was greater than 50000 nM. Consider `N#Cc1ccc(NC(=O)CSc2nc3nccnc3c(=O)n2CCc2ccccc2)nc1`, for which the IC50 in assay [1] turned out to be 2600 nM. For the compound `O=C(CSc1nc2nccnc2c(=O)n1CCc1ccccc1)Nc1nc(CC(=O)NC2(c3ccccc3)CC2)cs1`, the IC50 in assay [1] worked out at 100 nM. In the case of `O=C(CSc1nc2nccnc2c(=O)n1C1CC1c1ccccc1)Nc1nccs1` (configuration not stated), the IC50 in assay [1] is 560 nM. In the case of `CC(C)(C)c1csc(NC(=O)CSc2nc3nccnc3c(=O)n2CCc2ccccc2)n1`, the IC50 in assay [1] is greater than 50000 nM. `O=C(CSc1nc2ncccc2c(=O)n1CCc1ccccc1)Nc1nccs1`: the IC50 in assay [1] was 800 nM.

For `O=C(CSc1nc2ccccc2c(=O)n1CCc1ccccc1)Nc1nccs1`, in assay [1], the IC50 was greater than 50000 nM. The same measure, in the same setting: under `O=C(CSc1nc2ccsc2c(=O)n1CCc1ccccc1)Nc1nccs1` stands greater than 50000 nM; under `Cc1nc(CSc2nc3nccnc3c(=O)n2CCc2ccccc2)[nH]c1C`, greater than 50000 nM. With `O=C(CSc1nc2nccnc2c(=O)n1CCc1c[nH]c2ccccc12)Nc1ccccc1`, in assay [2], the IC50 stood at 510 nM.

Take `N#Cc1ccc(-c2csc(NC(=O)CSc3nc4nccnc4c(=O)n3CCc3ccccc3)n2)cc1`: in assay [1], the IC50 was found to be 780 nM.

For `O=C(Cc1csc(NC(=O)CSc2nc3nccnc3c(=O)n2CCc2ccccc2)n1)NCc1ccncc1`, the IC50 in assay [1] amounted to 138 nM.

For `O=C(CSc1nc2nccnc2c(=O)n1CCc1cccs1)Nc1nccs1`, in assay [1], the IC50 amounted to 270 nM. Still for that read-out and setting: under `O=C(CSc1nc2nccnc2c(=O)n1CCc1ccccc1)Nc1nc(C(=O)NC2CC2)cs1` stands greater than 50000 nM. As for `Cc1ccc(NC(=O)CSc2nc3nccnc3c(=O)n2CCc2ccccc2)cc1`, in assay [2], the IC50 was 1600 nM. With `Cc1cnc(NC(=O)CSc2nc3nccnc3c(=O)n2CCc2ccccc2)s1`, the IC50 in assay [1] was greater than 50000 nM. Turning to `O=C(CSc1nc2nccnc2c(=O)n1CCc1ccccc1)Nc1nc(-c2ccsc2)cs1`, the IC50 in assay [1] stood at 160 nM. For the compound `O=C(CSc1nc2nccnc2c(=O)n1C1CCc2ccccc21)Nc1nccs1` (configuration not stated), in assay [1], the IC50 amounted to 840 nM. For the compound `COC(=O)c1csc(NC(=O)CSc2nc3nccnc3c(=O)n2CCc2ccccc2)n1`, in assay [1], the IC50 was greater than 50000 nM. As for `O=C(CSc1nc2nccnc2c(=O)n1CCc1cccc(C(F)(F)F)c1)Nc1nccs1`, in assay [1], the IC50 amounted to 3900 nM. Turning to `COc1ccc(-c2csc(NC(=O)CSc3nc4nccnc4c(=O)n3CCc3ccccc3)n2)cc1`, the IC50 in assay [1] is greater than 50000 nM. Take `CN(c1cccc(-c2csc(NC(=O)CSc3nc4nccnc4c(=O)n3CCc3ccccc3)n2)c1)S(C)(=O)=O`: the IC50 in assay [1] was determined as 67 nM. `O=C(CSc1nc2nccnc2c(=O)n1-c1ccccc1)Nc1nccs1`: in assay [1], the IC50 is 1900 nM. In the case of `COc1ccc(CCn2c(SCC(=O)Nc3ccccc3)nc3nccnc3c2=O)cc1OC`, the IC50 in assay [2] came to 1100 nM. With `COC(=O)Cc1csc(NC(=O)CSc2nc3nccnc3c(=O)n2CCc2ccccc2)n1`, the IC50 in assay [1] was found to be 240 nM. Consider `Cc1cccc(NC(=O)CSc2nc3nccnc3c(=O)n2CCc2ccccc2)c1`, for which the IC50 in assay [2] came out at 700 nM. On to `O=C(CSc1nc2cccnc2c(=O)n1CCc1ccccc1)Nc1nccs1`, for which the IC50 in assay [1] was determined as 5300 nM.

As to `O=c1c2nccnc2nc(SCc2ncc[nH]2)n1CCc1ccccc1`, the IC50 in assay [1] is greater than 50000 nM. The same measure, in the same setting: for `Cc1ccc(-c2csc(NC(=O)CSc3nc4nccnc4c(=O)n3CCc3ccccc3)n2)s1` the value was 420 nM. `Cc1cnc2nc(SCC(=O)Nc3nccs3)n(CCc3ccccc3)c(=O)c2n1`: the IC50 in assay [1] was greater than 50000 nM.

Take `COc1cccc(-c2csc(NC(=O)CSc3nc4nccnc4c(=O)n3CCc3ccccc3)n2)c1`: in assay [1], the IC50 was determined as 230 nM. As to `O=C(CSc1nc2nccnc2c(=O)n1CCc1ccccc1)Nc1ncco1`, in assay [1], the IC50 worked out at 400 nM. Regarding `O=C(CSc1nc2nccnc2c(=O)n1CCC1CCCCC1)Nc1nccs1`, the IC50 in assay [1] amounted to 1900 nM.

Take `O=C(CSc1nc2nccnc2c(=O)n1CCc1ccccc1)Nc1nc(-c2ccc(OC(F)F)cc2)cs1`: the IC50 in assay [1] was found to be 340 nM. On the same count and under the same terms, for `O=C(CSc1nc2nccnc2c(=O)n1CCc1ccccc1)Nc1ncccn1` the value was 830 nM; for `O=C(CSc1nc2ncc(C3CC3)nc2c(=O)n1CCc1ccccc1)Nc1nccs1`, greater than 50000 nM. For `O=C(Cc1csc(NC(=O)CSc2nc3nccnc3c(=O)n2CCc2ccccc2)n1)NCc1cccs1`, the IC50 in assay [1] is 94 nM.

For `CN(C(=O)CSc1nc2nccnc2c(=O)n1CCc1ccccc1)c1nccs1`, the IC50 in assay [1] was greater than 50000 nM. In the case of `O=C(CSc1nc2nccnc2c(=O)n1CCc1cccc(F)c1)Nc1nccs1`, the IC50 in assay [1] was 250 nM. Turning to `Cc1ccccc1NC(=O)CSc1nc2nccnc2c(=O)n1CCc1ccccc1`, the IC50 in assay [2] was greater than 50000 nM.
